This is an account of results in ChEMBL document CHEMBL1955750, “Benzodiazepines and benzotriazepines as protein interaction inhibitors targeting bromodomains of the BET family” (Bioorg Med Chem, 2012).

Experiment [1] can be described thus: Binding affinity to LOC93349 assessed as change in melting temperature at 100 uM by protein stability shift assay.
For experiment [2], the target named is Bromodomain-containing protein 2 (Homo sapiens) (UniProt P25440). Nature of the experiment: Binding affinity to BRD2-BD2 assessed as change in melting temperature at 100 uM by protein stability shift assay.
Sequence of Bromodomain-containing protein 2 (Homo sapiens) (P25440 whole entry, looked up): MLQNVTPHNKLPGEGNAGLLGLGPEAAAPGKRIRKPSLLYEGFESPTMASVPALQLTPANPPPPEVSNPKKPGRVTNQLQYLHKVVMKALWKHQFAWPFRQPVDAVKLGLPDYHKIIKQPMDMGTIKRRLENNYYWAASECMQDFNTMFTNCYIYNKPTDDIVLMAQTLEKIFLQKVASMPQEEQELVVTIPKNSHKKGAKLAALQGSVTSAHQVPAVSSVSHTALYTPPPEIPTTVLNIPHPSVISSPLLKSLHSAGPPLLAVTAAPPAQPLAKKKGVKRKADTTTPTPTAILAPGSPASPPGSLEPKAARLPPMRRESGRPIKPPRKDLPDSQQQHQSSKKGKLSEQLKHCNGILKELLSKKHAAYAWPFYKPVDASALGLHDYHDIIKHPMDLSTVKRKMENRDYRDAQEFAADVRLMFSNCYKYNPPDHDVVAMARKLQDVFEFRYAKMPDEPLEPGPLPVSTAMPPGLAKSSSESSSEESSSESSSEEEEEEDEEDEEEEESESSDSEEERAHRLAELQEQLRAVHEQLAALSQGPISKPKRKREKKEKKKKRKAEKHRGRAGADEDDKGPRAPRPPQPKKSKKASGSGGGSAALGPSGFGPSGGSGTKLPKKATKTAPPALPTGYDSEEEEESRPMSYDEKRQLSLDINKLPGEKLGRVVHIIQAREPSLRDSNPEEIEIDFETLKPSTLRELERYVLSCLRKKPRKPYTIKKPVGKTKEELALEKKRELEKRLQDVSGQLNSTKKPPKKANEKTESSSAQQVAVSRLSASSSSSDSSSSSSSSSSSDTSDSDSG
Experiment [3] has the same target. Nature of the experiment: Binding affinity to BRD2-BD1 assessed as change in melting temperature at 100 uM by protein stability shift assay.
Experiment [4] concerns the target CREB-binding protein (Homo sapiens) (UniProt Q92793). The experiment can be described thus: Binding affinity to CREBBP assessed as change in melting temperature at 100 uM by protein stability shift assay.
Experiment [5] concerns the target Histone acetyltransferase KAT2B (Homo sapiens) (UniProt Q92831). The experiment can be described thus: Binding affinity to PCAF assessed as change in melting temperature at 100 uM by protein stability shift assay.
The target in experiment [6] is Protein polybromo-1 (Homo sapiens) (UniProt Q86U86). Nature of the experiment: Binding affinity to PB1 assessed as change in melting temperature at 100 uM by protein stability shift assay.
Sequence of Protein polybromo-1 (Homo sapiens) (Q86U86 whole entry): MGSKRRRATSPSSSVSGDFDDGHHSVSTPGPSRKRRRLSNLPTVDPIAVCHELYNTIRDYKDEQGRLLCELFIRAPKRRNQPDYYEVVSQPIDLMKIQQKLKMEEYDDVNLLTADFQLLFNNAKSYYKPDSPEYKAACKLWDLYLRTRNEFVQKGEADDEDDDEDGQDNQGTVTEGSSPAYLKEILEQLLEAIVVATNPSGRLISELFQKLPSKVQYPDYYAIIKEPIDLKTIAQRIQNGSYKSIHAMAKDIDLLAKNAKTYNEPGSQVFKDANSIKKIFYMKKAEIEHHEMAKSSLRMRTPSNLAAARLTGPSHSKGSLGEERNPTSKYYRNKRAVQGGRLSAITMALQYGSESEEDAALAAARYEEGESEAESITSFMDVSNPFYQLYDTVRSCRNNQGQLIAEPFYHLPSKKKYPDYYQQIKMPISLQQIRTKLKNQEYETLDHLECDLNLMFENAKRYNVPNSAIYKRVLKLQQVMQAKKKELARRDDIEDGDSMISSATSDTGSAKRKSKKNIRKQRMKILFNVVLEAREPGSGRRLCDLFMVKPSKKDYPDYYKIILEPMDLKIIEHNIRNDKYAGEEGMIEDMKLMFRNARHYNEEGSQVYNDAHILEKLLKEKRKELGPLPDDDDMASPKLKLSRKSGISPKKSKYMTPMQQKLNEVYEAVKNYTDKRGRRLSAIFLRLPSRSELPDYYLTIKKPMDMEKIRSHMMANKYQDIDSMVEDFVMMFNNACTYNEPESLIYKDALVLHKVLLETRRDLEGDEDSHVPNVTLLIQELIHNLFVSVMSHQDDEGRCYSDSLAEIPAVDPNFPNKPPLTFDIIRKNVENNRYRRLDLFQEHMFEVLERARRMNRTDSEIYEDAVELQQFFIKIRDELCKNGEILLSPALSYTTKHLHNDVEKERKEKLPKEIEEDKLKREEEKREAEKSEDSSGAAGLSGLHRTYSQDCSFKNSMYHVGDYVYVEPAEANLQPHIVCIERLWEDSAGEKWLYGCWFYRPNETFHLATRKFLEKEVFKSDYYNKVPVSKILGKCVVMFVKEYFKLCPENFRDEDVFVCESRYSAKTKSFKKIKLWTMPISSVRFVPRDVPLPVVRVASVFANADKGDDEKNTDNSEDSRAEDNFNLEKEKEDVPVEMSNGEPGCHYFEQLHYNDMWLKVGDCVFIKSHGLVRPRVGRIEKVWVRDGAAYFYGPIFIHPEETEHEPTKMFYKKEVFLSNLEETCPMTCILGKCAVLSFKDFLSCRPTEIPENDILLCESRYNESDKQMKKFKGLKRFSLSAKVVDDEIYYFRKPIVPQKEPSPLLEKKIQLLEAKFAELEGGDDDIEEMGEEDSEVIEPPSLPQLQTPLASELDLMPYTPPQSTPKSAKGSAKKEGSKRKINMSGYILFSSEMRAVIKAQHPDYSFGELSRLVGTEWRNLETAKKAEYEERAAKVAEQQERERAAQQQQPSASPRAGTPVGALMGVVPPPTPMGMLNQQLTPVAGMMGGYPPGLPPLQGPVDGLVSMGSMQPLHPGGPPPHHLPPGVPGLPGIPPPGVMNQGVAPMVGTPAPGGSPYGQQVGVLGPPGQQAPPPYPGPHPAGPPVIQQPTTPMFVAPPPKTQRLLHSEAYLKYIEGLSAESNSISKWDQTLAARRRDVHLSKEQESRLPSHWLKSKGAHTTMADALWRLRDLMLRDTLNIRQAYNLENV
Experiment [7] addresses Bromodomain testis-specific protein (Homo sapiens) (UniProt Q58F21). The experiment can be described thus: Binding affinity to BRDT-BD1 assessed as change in melting temperature at 100 uM by protein stability shift assay.
Experiment [8] addresses T1, Bromodomain-containing protein 4 (Homo sapiens, UniProt O60885). Nature of the experiment: Binding affinity to BRD4-BD1 assessed as change in melting temperature at 100 uM by protein stability shift assay.
Experiment [9] addresses Bromodomain-containing protein 3 (Homo sapiens) (UniProt Q15059). The experiment can be described thus: Binding affinity to BRD3-BD1 assessed as change in melting temperature at 100 uM by protein stability shift assay.
Experiment [10] addresses T1, Bromodomain-containing protein 4. Nature of the experiment: Binding affinity to BRD4-BD2 assessed as change in melting temperature at 100 uM by protein stability shift assay.
Experiment [11] concerns the target Bromodomain adjacent to zinc finger domain protein 2B (Homo sapiens) (UniProt Q9UIF8). The experiment can be described thus: Binding affinity to BAZ2B assessed as change in melting temperature at 100 uM by protein stability shift assay.
Experiment [12] has as its target Bromodomain-containing protein 3 (Homo sapiens) (UniProt Q15059). Nature of the experiment: Binding affinity to BRD3-BD2 assessed as change in melting temperature at 100 uM by protein stability shift assay.
The target in experiment [13] is T1, Bromodomain-containing protein 4. Nature of the experiment: Binding affinity to BRD4-BD2 assessed as change in melting temperature at 10 uM by protein stability shift assay.
The target in experiment [14] is Bromodomain adjacent to zinc finger domain protein 2B (Homo sapiens) (UniProt Q9UIF8). The experiment can be described thus: Binding affinity to BAZ2B assessed as change in melting temperature at 10 uM by protein stability shift assay.
Sequence of Bromodomain adjacent to zinc finger domain protein 2B (Homo sapiens) (Q9UIF8 whole entry, the tested form may be a part): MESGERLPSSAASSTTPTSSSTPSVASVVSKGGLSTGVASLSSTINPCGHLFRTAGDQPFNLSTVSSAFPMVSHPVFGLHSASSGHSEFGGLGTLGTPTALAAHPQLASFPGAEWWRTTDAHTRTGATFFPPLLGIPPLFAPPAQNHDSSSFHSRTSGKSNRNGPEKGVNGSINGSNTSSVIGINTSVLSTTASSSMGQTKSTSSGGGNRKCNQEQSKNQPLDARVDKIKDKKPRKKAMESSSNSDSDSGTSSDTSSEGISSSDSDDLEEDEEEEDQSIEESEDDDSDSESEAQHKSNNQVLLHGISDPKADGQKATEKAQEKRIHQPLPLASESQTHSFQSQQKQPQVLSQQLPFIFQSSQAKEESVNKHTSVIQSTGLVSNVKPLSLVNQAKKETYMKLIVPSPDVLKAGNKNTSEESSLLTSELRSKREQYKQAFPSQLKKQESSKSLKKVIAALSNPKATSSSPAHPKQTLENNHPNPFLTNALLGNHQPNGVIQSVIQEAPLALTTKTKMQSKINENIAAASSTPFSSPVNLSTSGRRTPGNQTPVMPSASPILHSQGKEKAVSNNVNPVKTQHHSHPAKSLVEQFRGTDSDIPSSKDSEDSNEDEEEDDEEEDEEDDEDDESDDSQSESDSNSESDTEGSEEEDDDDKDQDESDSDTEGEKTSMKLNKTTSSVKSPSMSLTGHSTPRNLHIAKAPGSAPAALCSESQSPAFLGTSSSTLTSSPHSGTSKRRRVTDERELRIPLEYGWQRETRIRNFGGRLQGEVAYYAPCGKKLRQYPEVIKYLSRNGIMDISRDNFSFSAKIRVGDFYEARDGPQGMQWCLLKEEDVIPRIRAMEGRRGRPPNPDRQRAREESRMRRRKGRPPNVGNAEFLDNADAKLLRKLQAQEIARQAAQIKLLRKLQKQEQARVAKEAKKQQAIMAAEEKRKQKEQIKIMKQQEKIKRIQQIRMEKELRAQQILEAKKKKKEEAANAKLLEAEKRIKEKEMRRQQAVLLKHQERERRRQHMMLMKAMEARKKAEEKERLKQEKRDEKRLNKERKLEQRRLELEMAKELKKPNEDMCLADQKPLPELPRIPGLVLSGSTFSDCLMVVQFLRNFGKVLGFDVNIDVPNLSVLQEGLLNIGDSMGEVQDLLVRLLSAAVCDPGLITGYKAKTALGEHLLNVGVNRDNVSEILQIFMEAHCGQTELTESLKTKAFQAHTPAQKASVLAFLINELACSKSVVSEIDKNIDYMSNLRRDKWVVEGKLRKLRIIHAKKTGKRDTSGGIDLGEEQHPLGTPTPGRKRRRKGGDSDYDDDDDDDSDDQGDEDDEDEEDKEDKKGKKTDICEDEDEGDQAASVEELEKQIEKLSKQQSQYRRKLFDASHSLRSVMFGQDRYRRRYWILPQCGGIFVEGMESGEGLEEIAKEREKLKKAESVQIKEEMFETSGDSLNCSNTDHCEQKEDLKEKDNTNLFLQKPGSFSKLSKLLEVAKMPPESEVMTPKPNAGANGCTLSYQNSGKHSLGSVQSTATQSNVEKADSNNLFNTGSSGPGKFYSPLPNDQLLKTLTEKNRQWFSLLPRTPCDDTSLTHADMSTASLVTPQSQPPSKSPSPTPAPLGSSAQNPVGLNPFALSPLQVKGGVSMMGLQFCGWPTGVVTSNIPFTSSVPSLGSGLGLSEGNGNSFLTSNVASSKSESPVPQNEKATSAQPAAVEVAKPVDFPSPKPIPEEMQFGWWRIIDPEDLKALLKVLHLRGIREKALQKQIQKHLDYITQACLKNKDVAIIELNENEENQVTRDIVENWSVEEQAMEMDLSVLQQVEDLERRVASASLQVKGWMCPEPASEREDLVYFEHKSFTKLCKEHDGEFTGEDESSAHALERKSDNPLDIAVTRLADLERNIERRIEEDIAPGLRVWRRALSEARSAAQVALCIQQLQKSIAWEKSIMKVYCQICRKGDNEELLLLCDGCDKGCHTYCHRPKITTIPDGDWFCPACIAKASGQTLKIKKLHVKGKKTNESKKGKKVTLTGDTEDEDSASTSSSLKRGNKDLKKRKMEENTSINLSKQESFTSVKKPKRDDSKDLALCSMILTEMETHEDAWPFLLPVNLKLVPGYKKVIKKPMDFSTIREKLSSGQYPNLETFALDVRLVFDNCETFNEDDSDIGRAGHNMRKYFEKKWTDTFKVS
In experiment [15] the target is Bromodomain-containing protein 3 (Homo sapiens) (UniProt Q15059). The experiment can be described thus: Binding affinity to BRD3-BD2 assessed as change in melting temperature at 10 uM by protein stability shift assay.
Experiment [16] has as its target Histone acetyltransferase KAT2B (Homo sapiens) (UniProt Q92831). Nature of the experiment: Binding affinity to PCAF assessed as change in melting temperature at 10 uM by protein stability shift assay.
Experiment [17] concerns the target Bromodomain testis-specific protein (Homo sapiens) (UniProt Q58F21). Nature of the experiment: Binding affinity to BRDT-BD1 assessed as change in melting temperature at 10 uM by protein stability shift assay.
The target of experiment [18] is Protein polybromo-1 (Homo sapiens) (UniProt Q86U86). The experiment can be described thus: Binding affinity to PB1 assessed as change in melting temperature at 10 uM by protein stability shift assay.
The target of experiment [19] is T1, Bromodomain-containing protein 4. Nature of the experiment: Binding affinity to BRD4-BD1 assessed as change in melting temperature at 10 uM by protein stability shift assay.
Experiment [20] has as its target Bromodomain-containing protein 3 (Homo sapiens) (UniProt Q15059). Nature of the experiment: Binding affinity to BRD3-BD1 assessed as change in melting temperature at 10 uM by protein stability shift assay.
In experiment [21] the target is Bromodomain-containing protein 2 (Homo sapiens) (UniProt P25440). Nature of the experiment: Binding affinity to BRD2-BD1 assessed as change in melting temperature at 10 uM by protein stability shift assay.
Experiment [22] has as its target CREB-binding protein (Homo sapiens) (UniProt Q92793). The experiment can be described thus: Binding affinity to CREBBP assessed as change in melting temperature at 10 uM by protein stability shift assay.
Experiment [23] addresses Bromodomain-containing protein 2 (Homo sapiens) (UniProt P25440). Nature of the experiment: Binding affinity to BRD2-BD2 assessed as change in melting temperature at 10 uM by protein stability shift assay.
A short description of experiment [24]: Binding affinity to LOC93349 assessed as change in melting temperature at 10 uM by protein stability shift assay.
Experiment [25] has as its target T1, Bromodomain-containing protein 4.
Description: Binding affinity to BRD4-BD1 assessed as change in melting temperature by isothermal titration calorimetry

Activity calls are given as the source filed them. The calls are words filed in the database; no cut-off is given here. A value given as a limit tells only on which side of the number the result lay.

As for `CCC1=NCc2nnc(-c3cccc(OC)c3)n2-c2ccc(Cl)cc21`, the ΔTm in experiment [1], in experiment [2], in [3], in experiment [4], in [5] and in [6] was less than 2 °C throughout. The ΔTm in [7], in experiment [8], in [9], in [10], in experiment [11] and in experiment [12] was less than 2 °C throughout.

In the case of `Cc1ncc2n1-c1ccc(Cl)cc1C(c1ccccc1F)=NC2`, the outcome in experiment [13], in [15], in experiment [17], in experiment [19], in experiment [20] and in experiment [21] was Active. For the same compound, the result in [22] and in [23] was Active. Further, the result in experiment [14], in experiment [16], in experiment [18] and in experiment [24] was inactive.

Turning to `CCC1=NCc2nnc(-c3ccccc3)n2-c2ccc(Cl)cc21`, the thermal shift (ΔTm) in [1], in experiment [2], in experiment [3], in experiment [4], in [5] and in [6] was less than 2 °C each time. Besides, the ΔTm in experiment [7], in experiment [8], in experiment [9], in experiment [10], in [11] and in experiment [12] was less than 2 °C each time.

Regarding `CN1N=C(c2ccccc2)c2cc(Cl)ccc2-n2c1n[nH]c2=O`, the ΔTm in experiment [1], in experiment [2], in experiment [3], in experiment [4], in experiment [5] and in experiment [6] was less than 2 °C throughout. The ΔTm in experiment [7], in experiment [8], in [9], in [10], in [11] and in experiment [12] was less than 2 °C each time.

For the compound `CCC1=NCc2nnc(C)n2-c2ccc(Cl)cc21`, the ΔTm in experiment [1], in experiment [2], in [3], in [4], in experiment [5] and in experiment [6] was less than 2 °C throughout. In addition, the ΔTm in experiment [7], in [8], in experiment [9], in [10], in experiment [11] and in experiment [12] was less than 2 °C throughout.

As for `CCOC(=O)c1ncn2c1[C@@H]1CCCN1C(=O)c1cc(OC)ccc1-2`, the outcome in experiment [13], in [19], in experiment [20] and in experiment [21] was Active. The result in experiment [14], in experiment [15], in experiment [16], in experiment [17], in experiment [18] and in experiment [22] was inactive. Also, the result in [23] and in [24] was inactive.

Turning to `CCC1=NCC(=S)Nc2ccc(Cl)cc21`, the ΔTm in experiment [1], in experiment [2], in experiment [3], in experiment [4], in experiment [5] and in [6] was less than 2 °C in each case. Besides, the ΔTm in experiment [7], in experiment [8], in experiment [9], in [10], in [11] and in experiment [12] was less than 2 °C each time.

Turning to `Clc1ccc2c(c1)C(c1ccccc1)=NCc1nncn1-2`, the result in experiment [13], in [15], in [19], in [20] and in [22] was Active. Also, the result in [14], in experiment [16], in experiment [17], in [18], in [21] and in [23] was inactive. The outcome in experiment [24] was inactive.

For the compound `CN1N=C(c2ccccc2)c2cc(Cl)ccc2-n2c(N)nnc21`, the ΔTm in [1], in experiment [2], in experiment [3], in experiment [4], in experiment [5] and in [6] was less than 2 °C throughout. The ΔTm in experiment [7], in [8], in experiment [9], in experiment [10], in [11] and in [12] was less than 2 °C in each case.

On to `Cc1nnc2n1-c1ccc(Cl)cc1C(c1ccccc1)=NC2` [ALPRAZOLAM], for which the outcome in [13], in experiment [15], in experiment [17], in [18], in experiment [19] and in experiment [20] was Active. In addition, the outcome in [21], in [22] and in [23] was Active. For the same compound, the result in experiment [14], in experiment [16] and in experiment [24] was inactive. For the same compound, the thermal shift (ΔTm) (usually the shift of the melting midpoint relative to a reference) in experiment [25] stood at 4.7 °C.

On to `CC(=O)NNC1=Nc2ccc(Cl)cc2C(c2ccccc2)=NN1C`, for which the ΔTm in [1], in experiment [2], in [3], in experiment [4], in [5] and in experiment [6] was less than 2 °C in each case. Further, the ΔTm in experiment [7], in experiment [8], in [9], in experiment [10], in [11] and in experiment [12] was less than 2 °C each time.

As to `CCC1=NCc2nnc(-c3ccncc3)n2-c2ccc(Cl)cc21`, the ΔTm in experiment [1], in experiment [2], in experiment [3], in experiment [4], in experiment [5] and in experiment [6] was less than 2 °C each time. Moreover, the ΔTm in experiment [7], in [8], in experiment [9], in experiment [10], in [11] and in experiment [12] was less than 2 °C throughout.

As to `CCC1=NCc2nnc(CC)n2-c2ccc(Cl)cc21`, the ΔTm in [1], in [2], in experiment [3], in [4], in experiment [5] and in experiment [6] was less than 2 °C throughout. In addition, the shift in melting temperature (ΔTm) in experiment [7], in [8], in experiment [9], in experiment [10], in [11] and in experiment [12] was less than 2 °C throughout.

For `CCC1=NCC(=O)Nc2ccc(Cl)cc21`, the ΔTm in experiment [1], in experiment [2], in experiment [3], in [4], in experiment [5] and in experiment [6] was less than 2 °C throughout. Further, the ΔTm in [7], in [8], in experiment [9], in experiment [10], in experiment [11] and in experiment [12] was less than 2 °C each time.

As for `CN1N=C(c2ccccc2)c2cc(Cl)ccc2NC1=S`, the ΔTm in experiment [1], in experiment [2], in [3], in experiment [4], in experiment [5] and in experiment [6] was less than 2 °C in each case. In addition, the ΔTm in experiment [7], in experiment [8], in [9], in experiment [10], in [11] and in experiment [12] was less than 2 °C in each case.
